Measurements taken from patent publication US12577255B2, “MDM2-based modulators of proteolysis and associated methods of use” (Arvinas Operations, Inc., priority 2015, dated 2026).

Target: T1, androgen receptor (AR) (Homo sapiens, UniProt P10275)
T1 construct: detects endogenous levels of total androgen receptor protein; host or cells: VCaP
T1 sequence (P10275 1-920): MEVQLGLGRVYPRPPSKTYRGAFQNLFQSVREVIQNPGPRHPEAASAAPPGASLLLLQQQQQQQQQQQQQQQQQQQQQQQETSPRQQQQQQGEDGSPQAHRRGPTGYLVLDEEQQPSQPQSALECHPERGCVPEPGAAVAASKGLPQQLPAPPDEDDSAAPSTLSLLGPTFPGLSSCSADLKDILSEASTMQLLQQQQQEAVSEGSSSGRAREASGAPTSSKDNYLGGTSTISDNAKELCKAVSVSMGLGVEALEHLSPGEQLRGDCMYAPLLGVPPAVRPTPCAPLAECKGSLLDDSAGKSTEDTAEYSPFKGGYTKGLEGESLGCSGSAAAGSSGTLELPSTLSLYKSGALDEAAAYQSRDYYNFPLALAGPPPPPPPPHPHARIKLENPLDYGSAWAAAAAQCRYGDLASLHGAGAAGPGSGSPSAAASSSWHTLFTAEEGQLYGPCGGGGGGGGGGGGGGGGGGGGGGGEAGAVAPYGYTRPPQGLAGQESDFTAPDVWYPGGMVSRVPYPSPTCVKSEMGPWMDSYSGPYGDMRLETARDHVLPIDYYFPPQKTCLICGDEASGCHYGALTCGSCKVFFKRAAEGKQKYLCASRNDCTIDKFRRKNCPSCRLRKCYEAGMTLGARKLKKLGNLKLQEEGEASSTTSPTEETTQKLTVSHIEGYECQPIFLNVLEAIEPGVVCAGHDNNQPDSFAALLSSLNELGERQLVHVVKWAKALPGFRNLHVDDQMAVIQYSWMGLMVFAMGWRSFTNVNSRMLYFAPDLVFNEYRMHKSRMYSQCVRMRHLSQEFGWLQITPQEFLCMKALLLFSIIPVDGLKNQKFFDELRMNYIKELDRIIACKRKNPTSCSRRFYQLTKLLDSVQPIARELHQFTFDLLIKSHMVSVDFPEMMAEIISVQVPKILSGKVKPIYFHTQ
Experiment: AR ELISA assay (degradation)
Format: cell-based
Settings: VCaP cells, 16 h
Method: The following biological assays were performed to evaluate the protein degradation in various cell types using representative compounds disclosed. The degradation of the following proteins were evaluated: bromodomain-containing protein 4 (BRD4), androgen receptor (AR), c-Myc, c-Jun N-terminal kinases (JNK), and enhancer of zeste homolog 2 (EZH2).
VCaP cells were chased from ATCC and cultured in Dulbecco's Modified Eagle's Medium (ATCC), supplemented with 10% FBS (ATCC) and Penicillin/Streptomycin (Life Technologies). DMSO control and compound treatments (0.0001 μM to 1 μM) were performed in 96-well plates for 16 h. cells were harvested, and lysed with Cell Lysis Buffer (catalog #9803) (20 mM Tris-HCl, pH 7.5, 150 mM NaCl, 1 mM Na2EDTA, 1 mM EGTA, 1% Triton, 2.5 mM sodium pyrophosphate, 1 mM B-glycerophosphate, 1 mM Na3VO4, 1 μg/mL leupeptin. Lysates were clarified at 16,000 g for 10 minutes, and loaded into PathScan AR ELISA (Cell Signaling Catalog #12850). The PathScan Total Androgen Receptor Sanwich ELISA Kit is a solid phase sandwich enzyme-linked immunosorbent assay (ELISA) that detects endogenous levels of total androgen receptor protein. An Androgen Receptor Rabbit mAb has been coated onto the microwells. After incubation with cell lysates, androgen receptor protein is captured by the coated antibody. Following extensive washing, an Androgen receptor Mouse Detection mAbis added to detect the captured androgen receptor protein. Anti-mouse IgG, HRP-linked Antibody is then used to recognize the bound detection antibody. HRP substrate, TMB, is added to develop color. The magnitude of absorbance for the developed color is proportional to the quantity of total androgen receptor protein.

AR degradation (%) at 1 µM [%] | SMILES
0 to 25 | CC(C)(C)C[C@@H]1NC(C(=O)NCCOCCOCCOCCOCCOCCOc2ccc(C(=O)N[C@H]3C(C)(C)[C@H](Oc4ccc(C#N)c(Cl)c4)C3(C)C)cc2)[C@H](c2cccc(Cl)c2F)[C@@]1(C#N)c1ccc(Cl)cc1F (stereo partly drawn) [Compound A1688, 3-(3-chloro-2-fluorophenyl)-4-(4-chloro-2-fluorophenyl)-4-cyano-5-(2,2-dimethylpropyl)-N-[1-(4-{[(1,3-trans)-3-(3-chloro-4-cyanophenoxy)-2,2,4,4-tetramethylcyclobutyl]-carbamoyl}phenyl)-1,4,7,10,13,16-hexaoxaoctadecan-18-yl]pyrrolidine-2-carboxamide]
0 to 25 | CC(C)(C)C[C@@H]1NC(C(=O)NCCOCCOCCOc2ccc(C(=O)N[C@H]3C(C)(C)[C@H](Oc4ccc(C#N)c(Cl)c4)C3(C)C)cc2)[C@H](c2cccc(Cl)c2F)[C@@]1(C#N)c1ccc(Cl)cc1F (stereo partly drawn) [Compound A1621, 3-(3-chloro-2-fluorophenyl)-4-(4-chloro-2-fluorophenyl)-4-cyano-5-(2,2-dimethylpropyl)-N-(2-{2-[2-(4-{[(1,3-trans)-3-(3-chloro-4-cyanophenoxy)-2,2,4,4-tetramethylcyclobutyl]carbamoyl}phenoxy)ethoxy]ethoxy}ethyl)pyrrolidine-2-carboxamide]
25 to 50 | CC(C)(C)C[C@@H]1NC(C(=O)NCCOCCOCCOCCOCCOc2ccc(C(=O)N[C@H]3C(C)(C)[C@H](Oc4ccc(C#N)c(Cl)c4)C3(C)C)cc2)[C@H](c2cccc(Cl)c2F)[C@@]1(C#N)c1ccc(Cl)cc1F (stereo partly drawn) [Compound A1717, 3-(3-chloro-2-fluorophenyl)-4-(4-chloro-2-fluorophenyl)-4-cyano-5-(2,2-dimethylpropyl)-N-[1-(4-{[(1,3-trans)-3-(3-chloro-4-cyanophenoxy)-2,2,4,4-tetramethylcyclobutyl]carbamoyl}phenyl)-1,4,7,10,13-pentaoxapentadecan-15-yl]pyrrolidine-2-carboxamide]
0 to 25 | CC(C)(C)C[C@@H]1NC(C(=O)NCCOCCOCCOCCOc2ccc(C(=O)N[C@H]3C(C)(C)[C@H](Oc4ccc(C#N)c(Cl)c4)C3(C)C)cc2)[C@H](c2cccc(Cl)c2F)[C@@]1(C#N)c1ccc(Cl)cc1F (stereo partly drawn) [Compound A1603, 3-(3-chloro-2-fluorophenyl)-4-(4-chloro-2-fluorophenyl)-4-cyano-5-(2,2-dimethylpropyl)-N-[1-(4-{[(1,3-trans)-3-(3-chloro-4-cyanophenoxy)-2,2,4,4-tetramethylcyclobutyl]carbamoyl}phenyl)-1,4,7,10-tetraoxadodecan-12-yl]pyrrolidine-2-carboxamide]
0 to 25 | CC(C)(C)C[C@H]1N[C@H](C(=O)NCCOCCOCCOCCOCCOc2ccc(C(=O)N[C@H]3C(C)(C)[C@H](Oc4ccc(C#N)c(Cl)c4)C3(C)C)cc2)[C@@H](c2cccc(Cl)c2F)[C@]1(C#N)c1ccc(Cl)cc1F [Compound A1735, (2S,3R,4S,5R)-3-(3-chloro-2-fluorophenyl)-4-(4-chloro-2-fluorophenyl)-4-cyano-5-(2,2-dimethylpropyl)-N-[1-(4-{[(1r,3r)-3-(3-chloro-4-cyanophenoxy)-2,2,4,4-tetramethylcyclobutyl]carbamoyl]phenyl)-1,4,7,10,13-pentaoxapentadecan-15-yl]pyrrolidine-2-carboxamide]

SMILES | AR degradation (%) at 1 µM [%]
COc1cc(C(=O)NCCCOCCCCCOc2ccc(N3C(=S)N(c4ccc(C#N)c(C(F)(F)F)c4)C(=O)C3(C)C)cc2)ccc1NC(=O)C1NC(CC(C)(C)C)C(C#N)(c2ccc(Cl)cc2F)C1c1cccc(Cl)c1F (centres unmarked) [Compound A2435, 3-(3-chloro-2-fluorophenyl)-4-(4-chloro-2-fluorophenyl)-4-cyano-N-{4-[(3-{[5-(4-{3-[4-cyano-3-(trifluoromethyl)phenyl]-5,5-dimethyl-4-oxo-2-sulfanylideneimidazolidin-1-yl}phenoxy)pentyl]oxy}propyl)carbamoyl]-2-methoxyphenyl}-5-(2,2-dimethylpropyl)pyrrolidine-2-carboxamide] | > 50
CC(C)(C)CC1NC(C(=O)NCCCOCCCCCOc2ccc(N3C(=S)N(c4ccc(C#N)c(C(F)(F)F)c4)C(=O)C3(C)C)cc2)C(c2cccc(Cl)c2F)C1(C#N)c1ccc(Cl)cc1F (centres unmarked) [Compound A2434, 3-(3-chloro-2-fluorophenyl)-4-(4-chloro-2-fluorophenyl)-4-cyano-N-(3-{[5-(4-{3-[4-cyano-3-(trifluoromethyl)phenyl]-5,5-dimethyl-4-oxo-2-sulfanylideneimidazolidin-1-yl}phenoxy)pentyl]oxy}propyl)-5-(2,2-dimethylpropyl)pyrrolidine-2-carboxamide] | > 50
CCOc1cc(C(C)(C)C)ccc1C1=NC(C)(c2ccc(Cl)cc2)C(C)(c2ccc(Cl)cc2)N1C(=O)N1CCN(CCOCCOCCOCCOCCOCCOc2ccc(N3C(=S)N(c4ccc(C#N)c(C(F)(F)F)c4)C(=O)C3(C)C)cc2)CC1 (centres unmarked) [Compound A702, 4-(3-{4-[(17-{4-[2-(4-tert-butyl-2-ethoxyphenyl)-4,5-bis(4-chlorophenyl)-4,5-dimethyl-4,5-dihydro-1H-imidazole-1-carbonyl]piperazin-1-yl}-3,6,9,12,15-pentaoxaheptadecan-1-yl)oxy]phenyl}-4,4-dimethyl-5-oxo-2-sulfanylideneimidazolidin-1-yl)-2-(trifluoromethyl)benzonitrile] | 25 to 50
CCOc1cc(C(C)(C)C)ccc1C1=NC(C)(c2ccc(Cl)cc2)C(C)(c2ccc(Cl)cc2)N1C(=O)N1CCN(CCOCCOc2ccc(N3C(=S)N(c4ccc(C#N)c(C(F)(F)F)c4)C(=O)C3(C)C)cc2)CC1 (centres unmarked) [Compound A680, 4-(3-{4-[2-(2-{4-[2-(4-tert-butyl-2-ethoxyphenyl)-4,5-bis(4-chlorophenyl)-4,5-dimethyl-4,5-dihydro-1H-imidazole-1-carbonyl]piperazin-1-yl}ethoxy)ethoxy]phenyl}-4,4-dimethyl-5-oxo-2-sulfanylideneimidazolidin-1-yl)-2-(trifluoromethyl)benzonitrile] | 0 to 25

System: p53
Experiment: Western blot of HCT116 cells, p53 level
Format: cell-based, human
Settings: Western blot (FIG. 2, FIG. 3)

SMILES | p53 level increase
COc1cc(C(=O)NCCOCCOCCOCCOCC(=O)N[C@H](C(=O)N2C[C@H](O)C[C@H]2C(=O)NCc2ccc(-c3scnc3C)cc2)C(C)(C)C)ccc1NC(=O)[C@@H]1N[C@@H](CC(C)(C)C)[C@](C#N)(c2ccc(Cl)cc2F)[C@H]1c1cccc(Cl)c1F (single isomer, unassigned) [Compound A1896] | dose dependent p53 level increase
COc1cc(C(=O)NCCOCCOCCOCCOCC(=O)N[C@H](C(=O)N2C[C@H](O)C[C@H]2C(=O)NCc2ccc(-c3scnc3C)cc2)C(C)(C)C)ccc1NC(=O)C1NC(CC(C)(C)C)C(C#N)(c2ccc(Cl)cc2F)C1c1cccc(Cl)c1F (mixture of isomers) [Compound A1895, 3-(3-chloro-2-fluorophenyl)-4-(4-chloro-2-fluorophenyl)-4-cyano-5-(2,2-dimethylpropyl)-N-{4-[(1-{[(2S)-1-[(2S,4R)-4-hydroxy-2-({[4-(4-methyl-1,3-thiazol-5-yl)phenyl]methyl}carbamoyl)pyrrolidin-1-yl]-3,3-dimethyl-1-oxobutan-2-yl]carbamoyl}-2,5,8,11-tetraoxatridecan-13-yl)carbamoyl]-2-methoxyphenyl}pyrrolidine-2-carboxamide] | dose dependent p53 level increase
